From US9211310B2, “Use of a Chinese medicine composition in preparing medicaments for treating secondary prevention of myocardial infarction” (TASLY PHARMACEUTICAL GROUP CO., LTD, priority 2010, dated 2015)

Tested on: patients after acute myocardial infarction
Assay: Angina pectoris score, total and single (frequency/attack times, duration, pain degree, dose of nitroglycerin), same clinical trial
Format: in vivo, human
Set-up: total angina pectoris score, Md / total angina pectoris score, Mean: scale not given here
Conditions: for change of attack times score, patients (%): Follow-up baseline
Text: In order to better understand the present invention, a multi-center, randomized, double-blind, double-dummy and positive drug controlled trial had been conducted. 3508 patients who were in accordance with the diagnostic standards of AMI for 28 days to 2 years and differentiated as Qi deficiency and blood stagnation syndrome by TCM were studied. 0.5 g Chinese medicine composition prepared by the method of EXAMPLE 1 (Coded as QSYQ) was administrated half an hour after meal, 3 times per day. Aspirine was used as a positive drug. The patients were treated for 1 year and observed for 6 months.
They included the overall survival time, angina pectoris score, TCM symptom score and life quality score, where angina pectoris score, TCM symptom score and life quality score were evaluated at randomization, in 1st, 3rd, 6th, 9th, 12th month after treatment and 18th month after follow-up.
(§1) Total angina pectoris score was described on every observation period and the change of observation in comparison with baseline. T-test or Wilcoxon rank sum test were used for inter-group comparison. Grade of total score was evaluated on every observation and Wilcoxon rank sum test was used for inter-group comparison. T-test and Pairing signed rank sum test were used for analyzing the change of total score on every observation between groups in comparison with the baseline.
(§2) Single angina pectoris score was depicted on every observation time-point and the change of observation in comparison with baseline. Wilcoxon rank sum test was used for inter-group comparison. Pairing signed rank sum test was used for analyzing the change of total score on every observation between groups in comparison with the baseline.
as §1, with “comparison with the baseline. T-test” for “comparison with baseline. T-test”
as §2, with “described” for “depicted”

[1] = FAS, 12 months after treatment-baseline
[2] = PP, 1 month after treatment-baseline
[3] = PP, 3 months after treatment-baseline

CC(=O)Oc1ccccc1C(=O)O [Control group, aspirine]
change of total angina pectoris score, Md [1]: −2.00 | change of total angina pectoris score, Mean [1]: −3.28 | patients with change of dose of nitroglycerin score 0 (%) [1]: (65.55%) | patients with change of dose of nitroglycerin score 1 (%) [1]: (0.52%) | patients with change of dose of nitroglycerin score 2 (%) [1]: (3.97%) | patients with change of dose of nitroglycerin score 4 (%) [1]: (0.40%) | patients with change of dose of nitroglycerin score 6 (%) [1]: (0.35%) | patients with change of dose of nitroglycerin score −1 (%) [1]: (0.52%) | patients with change of dose of nitroglycerin score −2 (%) [1]: (21.77%) | patients with change of dose of nitroglycerin score −3 (%) [1]: (0.06%) | patients with change of dose of nitroglycerin score −4 (%) [1]: (4.95%) | patients with change of dose of nitroglycerin score −5 (%) [1]: (0.06%) | patients with change of dose of nitroglycerin score −6 (%) [1]: (1.84%) | distribution of total angina pectoris score: Medium, number of patients (FAS, Baseline): 608 | distribution of total angina pectoris score: Medium, percentage of patients (FAS, Baseline): (34.90%) | distribution of total angina pectoris score: Mild, number of patients (FAS, Baseline): 1086 | distribution of total angina pectoris score: Mild, percentage of patients (FAS, Baseline): (62.34%) | distribution of total angina pectoris score: Severe, number of patients (FAS, Baseline): 48 | distribution of total angina pectoris score: Severe, percentage of patients (FAS, Baseline): (2.76%) | total angina pectoris score, Md (FAS, Baseline): 8.00 | total angina pectoris score, Mean (FAS, Baseline): 7.12 | distribution of total angina pectoris score: Medium, number of patients (FAS, Follow-up): 199 | distribution of total angina pectoris score: Medium, percentage of patients (FAS, Follow-up): (13.79%) | distribution of total angina pectoris score: Mild, number of patients (FAS, Follow-up): 1243 | distribution of total angina pectoris score: Mild, percentage of patients (FAS, Follow-up): (86.14%) | distribution of total angina pectoris score: Severe, number of patients (FAS, Follow-up): 1 | distribution of total angina pectoris score: Severe, percentage of patients (FAS, Follow-up): (0.07%) | patients with dose of nitroglycerin score 0 (%) (FAS, Follow-up): (74.24%) | patients with dose of nitroglycerin score 1 (%) (FAS, Follow-up): (0.90%) | patients with dose of nitroglycerin score 2 (%) (FAS, Follow-up): (23.19%) | patients with dose of nitroglycerin score 4 (%) (FAS, Follow-up): (1.04%) | patients with dose of nitroglycerin score 6 (%) (FAS, Follow-up): (0.63%) | total angina pectoris score, Md (FAS, Follow-up): 0.00 | total angina pectoris score, Mean (FAS, Follow-up): 3.59 | change of total angina pectoris score, Md (FAS, Follow-up-baseline): −2.00 | change of total angina pectoris score, Mean (FAS, Follow-up-baseline): −3.49 | patients with change of dose of nitroglycerin score 0 (%) (FAS, Follow-up-baseline): (64.39%) | patients with change of dose of nitroglycerin score 1 (%) (FAS, Follow-up-baseline): (0.28%) | patients with change of dose of nitroglycerin score 2 (%) (FAS, Follow-up-baseline): (4.04%) | patients with change of dose of nitroglycerin score 4 (%) (FAS, Follow-up-baseline): (0.28%) | patients with change of dose of nitroglycerin score 6 (%) (FAS, Follow-up-baseline): (0.21%) | patients with change of dose of nitroglycerin score −1 (%) (FAS, Follow-up-baseline): (0.42%) | patients with change of dose of nitroglycerin score −2 (%) (FAS, Follow-up-baseline): (21.81%) | patients with change of dose of nitroglycerin score −3 (%) (FAS, Follow-up-baseline): (0.14%) | patients with change of dose of nitroglycerin score −4 (%) (FAS, Follow-up-baseline): (6.41%) | patients with change of dose of nitroglycerin score −5 (%) (FAS, Follow-up-baseline): (0.14%) | patients with change of dose of nitroglycerin score −6 (%) (FAS, Follow-up-baseline): (1.88%) | change of attack times score, patients (%) (change 0, FAS): (44.70%) | change of attack times score, patients (%) (change 0, PP): (44.46%) | change of attack times score, patients (%) (change 1, FAS): (1.94%) | change of attack times score, patients (%) (change 1, PP): (1.99%) | change of attack times score, patients (%) (change 2, FAS): (1.73%) | change of attack times score, patients (%) (change 2, PP): (1.70%) | change of attack times score, patients (%) (change 4, FAS): (0.14%) | change of attack times score, patients (%) (change 4, PP): (0.14%) | change of attack times score, patients (%) (change −1, FAS): (22.52%) | change of attack times score, patients (%) (change −1, PP): (22.44%) | change of attack times score, patients (%) (change −2, FAS): (22.73%) | change of attack times score, patients (%) (change −2, PP): (22.87%) | change of attack times score, patients (%) (change −3, FAS): (2.01%) | change of attack times score, patients (%) (change −3, PP): (2.06%) | change of attack times score, patients (%) (change −4, FAS): (3.60%) | change of attack times score, patients (%) (change −4, PP): (3.69%) | change of attack times score, patients (%) (change −5, FAS): (0.21%) | change of attack times score, patients (%) (change −5, PP): (0.21%) | change of attack times score, patients (%) (change −6, FAS): (0.42%) | change of attack times score, patients (%) (change −6, PP): (0.43%) | attack times score, patients (%) (Follow-up, score 0, FAS): (53.64%) | attack times score, patients (%) (Follow-up, score 0, PP): (53.48%) | attack times score, patients (%) (Follow-up, score 1, FAS): (22.80%) | attack times score, patients (%) (Follow-up, score 1, PP): (22.87%) | attack times score, patients (%) (Follow-up, score 2, FAS): (22.94%) | attack times score, patients (%) (Follow-up, score 2, PP): (23.01%) | attack times score, patients (%) (Follow-up, score 4, FAS): (0.62%) | attack times score, patients (%) (Follow-up, score 4, PP): (0.64%) | distribution of total angina pectoris score: Medium, number of patients (PP, 1 month after treatment): 434 | distribution of total angina pectoris score: Medium, percentage of patients (PP, 1 month after treatment): (29.21%) | distribution of total angina pectoris score: Mild, number of patients (PP, 1 month after treatment): 1030 | distribution of total angina pectoris score: Mild, percentage of patients (PP, 1 month after treatment): (69.31%) | distribution of total angina pectoris score: Severe, number of patients (PP, 1 month after treatment): 22 | distribution of total angina pectoris score: Severe, percentage of patients (PP, 1 month after treatment): (1.48%) | patients with dose of nitroglycerin score 0 (%) (PP, 1 month after treatment): (59.61%) | patients with dose of nitroglycerin score 1 (%) (PP, 1 month after treatment): (0.27%) | patients with dose of nitroglycerin score 2 (%) (PP, 1 month after treatment): (29.40%) | patients with dose of nitroglycerin score 4 (%) (PP, 1 month after treatment): (7.48%) | patients with dose of nitroglycerin score 6 (%) (PP, 1 month after treatment): (3.24%) | total angina pectoris score, Md (PP, 1 month after treatment): 6.00 | total angina pectoris score, Mean (PP, 1 month after treatment): 5.95 | change of total angina pectoris score, Md [2]: 0.00 | change of total angina pectoris score, Mean [2]: −1.22 | patients with change of dose of nitroglycerin score 0 (%) [2]: (80.36%) | patients with change of dose of nitroglycerin score 1 (%) [2]: (0.20%) | patients with change of dose of nitroglycerin score 2 (%) [2]: (3.78%) | patients with change of dose of nitroglycerin score 4 (%) [2]: (1.01%) | patients with change of dose of nitroglycerin score 6 (%) [2]: (0.27%) | patients with change of dose of nitroglycerin score −2 (%) [2]: (11.54%) | patients with change of dose of nitroglycerin score −4 (%) [2]: (2.29%) | patients with change of dose of nitroglycerin score −6 (%) [2]: (0.54%) | distribution of total angina pectoris score: Medium, number of patients (PP, 3 months after treatment): 363 | distribution of total angina pectoris score: Medium, percentage of patients (PP, 3 months after treatment): (24.64%) | distribution of total angina pectoris score: Mild, number of patients (PP, 3 months after treatment): 1098 | distribution of total angina pectoris score: Mild, percentage of patients (PP, 3 months after treatment): (74.54%) | distribution of total angina pectoris score: Severe, number of patients (PP, 3 months after treatment): 12 | distribution of total angina pectoris score: Severe, percentage of patients (PP, 3 months after treatment): (0.81%) | patients with dose of nitroglycerin score 0 (%) (PP, 3 months after treatment): (62.95%) | patients with dose of nitroglycerin score 1 (%) (PP, 3 months after treatment): (0.75%) | patients with dose of nitroglycerin score 2 (%) (PP, 3 months after treatment): (29.10%) | patients with dose of nitroglycerin score 4 (%) (PP, 3 months after treatment): (4.96%) | patients with dose of nitroglycerin score 6 (%) (PP, 3 months after treatment): (2.24%) | total angina pectoris score, Md (PP, 3 months after treatment): 6.00 | total angina pectoris score, Mean (PP, 3 months after treatment): 5.32 | change of total angina pectoris score, Md [3]: 0.00 | change of total angina pectoris score, Mean [3]: −1.85 | patients with change of dose of nitroglycerin score 0 (%) [3]: (5.05%) | patients with change of dose of nitroglycerin score 1 (%) [3]: (0.20%) | patients with change of dose of nitroglycerin score 2 (%) [3]: (3.75%) | patients with change of dose of nitroglycerin score 4 (%) [3]: (0.55%) | patients with change of dose of nitroglycerin score 6 (%) [3]: (0.34%) | patients with change of dose of nitroglycerin score −1 (%) [3]: (0.34%) | patients with change of dose of nitroglycerin score −2 (%) [3]: (15.81%) | patients with change of dose of nitroglycerin score −4 (%) [3]: (3.14%) | patients with change of dose of nitroglycerin score −5 (%) [3]: (0.14%)
